Assay results as given in patent EP0726261A1, “Herbidical 1,2,4 thiadiazoles” (American Cyanamid Company, priority 1995, dated 1996).

How the values were obtained:
Format in all cases: in vivo
Hordeum vulgare [1] = test: Preemergence herbicidal activity (Example 67); details: pre, 800 g/ha
Procedure, shortened: (§1)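 Test solutions in acetone with 0.5% TRITON X-155, diluted with water, sprayed at 800g/ha (400 L/ha) onto the soil surface of seeded cups. Cups kept under greenhouse conditions and rated on a standard scale about 1-3 weeks after treatment.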

Ipomoea hederacea [2] = test: Postemergence herbicidal activity (Example 67); details: pos, 800 g/ha
Procedure, shortened: (§2)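 Seedlings aged 3–6 weeks received a postemergence spray of compound in acetone with 0.5% Triton X-155, diluted in water, at 800 g/ha in 400 L/ha. Plants were then kept in the greenhouse and rated 10–21 days after treatment.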

Zea mays [3] = test: Postemergence herbicidal activity (Example 67); details: pos, 800 g/ha
Procedure, shortened: as §2

Triticum aestivum [4] = test: Postemergence herbicidal activity (Example 67); details: pos, 800 g/ha
Procedure, shortened: as §2

Amaranthus retroflexus [5] = test: Postemergence herbicidal activity (Example 67); details: pos, 800 g/ha
Procedure, shortened: as §2

Setaria viridis [6] = test: Postemergence herbicidal activity (Example 67); details: pos, 800 g/ha
Procedure, shortened: as §2

Galium aparine [7] = test: Postemergence herbicidal activity (Example 67); details: pos, 800 g/ha
Procedure, shortened: as §2

Alopecurus myosuroides [8] = test: Postemergence herbicidal activity (Example 67); details: pos, 800 g/ha
Procedure, shortened: as §2

Veronica persica [9] = test: Postemergence herbicidal activity (Example 67); details: pos, 800 g/ha
Procedure, shortened: as §2

Abutilon theophrasti [10] = test: Postemergence herbicidal activity (Example 67); details: pos, 800 g/ha
Procedure, shortened: as §2

Helianthus annuus [11] = test: Postemergence herbicidal activity (Example 67); details: pos, 800 g/ha
Procedure, shortened: as §2

Hordeum vulgare [12] = test: Postemergence herbicidal activity (Example 67); details: pos, 800 g/ha
Procedure, shortened: as §2

Chenopodium album [13] = test: Postemergence herbicidal activity (Example 67); details: pos, 800 g/ha
Procedure, shortened: as §2

Alopecurus myosuroides [14] = test: Preemergence herbicidal activity (Example 67); details: pre, 800 g/ha
Procedure, shortened: as §1

Setaria viridis [15] = test: Preemergence herbicidal activity (Example 67); details: pre, 800 g/ha
Procedure, shortened: as §1

Triticum aestivum [16] = test: Preemergence herbicidal activity (Example 67); details: pre, 800 g/ha
Procedure, shortened: as §1

Ipomoea hederacea [17] = test: Preemergence herbicidal activity (Example 67); details: pre, 800 g/ha
Procedure, shortened: as §1

Zea mays [18] = test: Preemergence herbicidal activity (Example 67); details: pre, 800 g/ha
Procedure, shortened: as §1

Amaranthus retroflexus [19] = test: Preemergence herbicidal activity (Example 67); details: pre, 800 g/ha
Procedure, shortened: as §1

Galium aparine [20] = test: Preemergence herbicidal activity (Example 67); details: pre, 800 g/ha
Procedure, shortened: as §1

Veronica persica [21] = test: Preemergence herbicidal activity (Example 67); details: pre, 800 g/ha
Procedure, shortened: as §1

Abutilon theophrasti [22] = test: Preemergence herbicidal activity (Example 67); details: pre, 800 g/ha
Procedure, shortened: as §1

Helianthus annuus [23] = test: Preemergence herbicidal activity (Example 67); details: pre, 800 g/ha
Procedure, shortened: as §1

Chenopodium album [24] = test: Preemergence herbicidal activity (Example 67); details: pre, 800 g/ha
Procedure, shortened: as §1

In the case of C[C@H](NC(=O)c1nsc(-c2cccc(C(F)(F)F)c2)n1)c1ccccc1 [Example 42], the “HOR VW rating” value (Hordeum vulgare [1]) is reported as 0, the “IPO HE rating” value (Ipomoea hederacea [2]) is reported as 2 (6-15%) and the “ZEA MX rating” value (Zea mays [3]) is reported as 0. The “TRZ AW rating” value (Triticum aestivum [4]) was 2 (6-15%), the “AMA RE rating” value (Amaranthus retroflexus [5]) was 0 and the “SET VI rating” value (Setaria viridis [6]) was 5 (45-64%). The “GAL AP rating” value (Galium aparine [7]) was 0, the “ALO MY rating” value (Alopecurus myosuroides [8]) was 1 (1-5%) and the “VER PE rating” value (Veronica persica [9]) was 0. The “ABU TH rating” value (Abutilon theophrasti [10]) was 0, the “HEL AN rating” value (Helianthus annuus [11]) was 3 (16-29%) and the “HOR VW rating” value (Hordeum vulgare [12]) was 2 (6-15%). The “CHE AL rating” value (Chenopodium album [13]) was 3 (16-29%), the “ALO MY rating” value (Alopecurus myosuroides [14]) was 0 and the “SET VI rating” value (Setaria viridis [15]) was 0. For the same compound, the “TRZ AW rating” value (Triticum aestivum [16]) was 0, the “IPO HE rating” value (Ipomoea hederacea [17]) was 0 and the “ZEA MX rating” value (Zea mays [18]) was 0. For the same compound, the “AMA RE rating” value (Amaranthus retroflexus [19]) was 0, the “GAL AP rating” value (Galium aparine [20]) was 2 (6-15%) and the “VER PE rating” value (Veronica persica [21]) was 2 (6-15%). The “ABU TH rating” value (Abutilon theophrasti [22]) was 0, the “HEL AN rating” value (Helianthus annuus [23]) was 0 and the “CHE AL rating” value (Chenopodium album [24]) was 5 (45-64%).

O=C(NCc1cccs1)c1nc(-c2cccc(F)c2)ns1 [Example 44] was tested, and the “HOR VW rating” value (Hordeum vulgare [1]) was 0, the “IPO HE rating” value (Ipomoea hederacea [2]) was 3 (16-29%) and the “ZEA MX rating” value (Zea mays [3]) was 2 (6-15%). For the same compound, the “TRZ AW rating” value (Triticum aestivum [4]) was 3 (16-29%), the “AMA RE rating” value (Amaranthus retroflexus [5]) was 0 and the “SET VI rating” value (Setaria viridis [6]) was 3 (16-29%). For the same compound, the “GAL AP rating” value (Galium aparine [7]) was 3 (16-29%), the “ALO MY rating” value (Alopecurus myosuroides [8]) was 0 and the “VER PE rating” value (Veronica persica [9]) was 0. The “ABU TH rating” value (Abutilon theophrasti [10]) was 0, the “HEL AN rating” value (Helianthus annuus [11]) was 0 and the “HOR VW rating” value (Hordeum vulgare [12]) was 3 (16-29%). The “CHE AL rating” value (Chenopodium album [13]) was 0, the “ALO MY rating” value (Alopecurus myosuroides [14]) was 4 (30-44%) and the “SET VI rating” value (Setaria viridis [15]) was 3 (16-29%). The “TRZ AW rating” value (Triticum aestivum [16]) was 0, the “IPO HE rating” value (Ipomoea hederacea [17]) was 3 (16-29%) and the “ZEA MX rating” value (Zea mays [18]) was 0. The “AMA RE rating” value (Amaranthus retroflexus [19]) was 0, the “GAL AP rating” value (Galium aparine [20]) was 0 and the “VER PE rating” value (Veronica persica [21]) was 0. For the same compound, the “ABU TH rating” value (Abutilon theophrasti [22]) was 0, the “HEL AN rating” value (Helianthus annuus [23]) was 0 and the “CHE AL rating” value (Chenopodium album [24]) was 0.

With C[C@H](NC(=O)c1nc(-c2cccc(F)c2)ns1)c1ccccc1 [Example 45, (S)-3-(3-Fluorophenyl)-[1,2,4]thiadiazole-5-carboxylic acid, 1-(phenylethyl)amide] the “HOR VW rating” value (Hordeum vulgare [1]) was 0, the “IPO HE rating” value (Ipomoea hederacea [2]) was 8 (91-99%) and the “ZEA MX rating” value (Zea mays [3]) was 4 (30-44%). The “TRZ AW rating” value (Triticum aestivum [4]) was 3 (16-29%), the “AMA RE rating” value (Amaranthus retroflexus [5]) was 3 (16-29%) and the “SET VI rating” value (Setaria viridis [6]) was 6 (65-79%). The “GAL AP rating” value (Galium aparine [7]) was 6 (65-79%), the “ALO MY rating” value (Alopecurus myosuroides [8]) was 4 (30-44%) and the “VER PE rating” value (Veronica persica [9]) was 7 (80-90%). The “ABU TH rating” value (Abutilon theophrasti [10]) was 8 (91-99%), the “HEL AN rating” value (Helianthus annuus [11]) was 8 (91-99%) and the “HOR VW rating” value (Hordeum vulgare [12]) was 4 (30-44%). The “CHE AL rating” value (Chenopodium album [13]) was 4 (30-44%), the “ALO MY rating” value (Alopecurus myosuroides [14]) was 3 (16-29%) and the “SET VI rating” value (Setaria viridis [15]) was 0. For the same compound, the “TRZ AW rating” value (Triticum aestivum [16]) was 0, the “IPO HE rating” value (Ipomoea hederacea [17]) was 0 and the “ZEA MX rating” value (Zea mays [18]) was 0. The “AMA RE rating” value (Amaranthus retroflexus [19]) was 0, the “GAL AP rating” value (Galium aparine [20]) was 0 and the “VER PE rating” value (Veronica persica [21]) was 8 (91-99%). For the same compound, the “ABU TH rating” value (Abutilon theophrasti [22]) was 0, the “HEL AN rating” value (Helianthus annuus [23]) was 0 and the “CHE AL rating” value (Chenopodium album [24]) was 0.

C[C@H](NC(=O)c1nc(-c2cccc(Cl)n2)ns1)c1ccccc1 [Example 46, (S)-3-(6-Chloro-2-pyridyl)-[1,2,4]thiadiazole-5-carboxylic acid, 1-(phenylethyl)amide] was tested, and the “HOR VW rating” value (Hordeum vulgare [1]) was 0, the “IPO HE rating” value (Ipomoea hederacea [2]) was 8 (91-99%) and the “ZEA MX rating” value (Zea mays [3]) was 5 (45-64%). For the same compound, the “TRZ AW rating” value (Triticum aestivum [4]) was 5 (45-64%), the “AMA RE rating” value (Amaranthus retroflexus [5]) was 3 (16-29%) and the “SET VI rating” value (Setaria viridis [6]) was 8 (91-99%). The “GAL AP rating” value (Galium aparine [7]) was 5 (45-64%), the “ALO MY rating” value (Alopecurus myosuroides [8]) was 6 (65-79%) and the “VER PE rating” value (Veronica persica [9]) was 8 (91-99%). The “ABU TH rating” value (Abutilon theophrasti [10]) was 8 (91-99%), the “HEL AN rating” value (Helianthus annuus [11]) was 8 (91-99%) and the “HOR VW rating” value (Hordeum vulgare [12]) was 6 (65-79%). For the same compound, the “CHE AL rating” value (Chenopodium album [13]) was 6 (65-79%), the “ALO MY rating” value (Alopecurus myosuroides [14]) was 0 and the “SET VI rating” value (Setaria viridis [15]) was 0. The “TRZ AW rating” value (Triticum aestivum [16]) was 1 (1-5%), the “IPO HE rating” value (Ipomoea hederacea [17]) was 0 and the “ZEA MX rating” value (Zea mays [18]) was 0. For the same compound, the “AMA RE rating” value (Amaranthus retroflexus [19]) was 5 (45-64%), the “GAL AP rating” value (Galium aparine [20]) was 0 and the “VER PE rating” value (Veronica persica [21]) was 5 (45-64%). For the same compound, the “ABU TH rating” value (Abutilon theophrasti [22]) was 0, the “HEL AN rating” value (Helianthus annuus [23]) was 0 and the “CHE AL rating” value (Chenopodium album [24]) was 4 (30-44%).
